pIC50: −log10 of the molar value. Positions of bridges follow the written chain, without caps; N, C: chain ends. Non-standard residues stand in square brackets, D forms with d. Residues, ends and D or L forms follow the SMILES beside them. 2Nal = N[C@@H](Cc1ccc2ccccc2c1)C(=O)O; Ahp(2) = CCCCC[C@H](N)C(=O)O; NHexGly = CCCCCCNCC(=O)O; Nle = CCCC[C@H](N)C(=O)O; Orn = NCCC[C@H](N)C(=O)O; Dab = NCC[C@H](N)C(=O)O; Nva = CCC[C@H](N)C(=O)O; Dap = NC[C@H](N)C(=O)O

For this assay, the target named is T1, mouse VISTA (mVISTA) (Mus musculus, UniProt Q9D659).
T1 construct: expressed in transfected cells; host or cells: Human embryonic kidney 293T cells
T1 sequence (Q9D659 33-308): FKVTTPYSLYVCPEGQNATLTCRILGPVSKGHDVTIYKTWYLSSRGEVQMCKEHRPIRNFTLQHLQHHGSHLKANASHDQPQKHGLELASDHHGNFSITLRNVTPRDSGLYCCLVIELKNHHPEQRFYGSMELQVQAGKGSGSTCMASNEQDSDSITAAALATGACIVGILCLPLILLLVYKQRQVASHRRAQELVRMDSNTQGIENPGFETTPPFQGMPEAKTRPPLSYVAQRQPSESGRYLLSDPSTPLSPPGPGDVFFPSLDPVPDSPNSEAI
The assay can be described thus: Cell-Based Binding High-Content Assay For mVISTA (HC CBA mVISTA). The following applies: 293T cells expressing mouse VISTA; competition with biotinylated peptide (2 nM); read-out: HC CBA mVISTA IC50. The method in brief:
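293T cells expressing mouse VISTA, with compounds added either after seeding ("no wash") or before seeding and then washed out after 1 h. Biotinylated peptide 2 nM for 30 min at room temperature, then detection with Alexa 647–streptavidin. After fixation with Hoechst stain, plates were high-content imaged; IC50 from four-parameter logistic fit.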
As to `CCCCCCN1CC(=O)N[C@@H](Cc2ccc(O)cc2)C(=O)N[C@@H](CC(C)C)C(=O)NCC(=O)N[C@@H](CCCNC(=N)N)C(=O)N[C@@H](Cc2ccc(O)cc2)C(=O)N[C@@H](CCCCC)C(=O)N2CCC[C@H]2C(=O)N[C@@H](C(C)C)C(=O)N[C@@H](CO)C(=O)N[C@H](C(=O)NCC(N)=O)CSCC(=O)N[C@@H](Cc2ccccc2)C(=O)N[C@@H](Cc2ccc(O)cc2)C(=O)N[C@@H](CC(=O)O)C1=O` [Example 1094] ({CH2CO}-FYD[NHexGly]YLGRY[Ahp(2)]PVSCG-NH2; thioether N-14), the pIC50 was 7.46.

`CCCCCCN1CC(=O)N[C@@H](Cc2ccc(O)cc2)C(=O)N[C@@H](CC(C)C)C(=O)NCC(=O)N[C@@H](CCCNC(=N)N)C(=O)N[C@@H](Cc2ccc(O)cc2)C(=O)N[C@@H](CCCCC)C(=O)N2CCC[C@H]2C(=O)N[C@@H](C(C)C)C(=O)N[C@@H](CO)C(=O)N[C@H](C(=O)NCC(=O)O)CSCC(=O)N[C@@H](Cc2ccccc2)C(=O)N[C@@H](Cc2ccc(O)cc2)C(=O)N[C@@H](CC(=O)O)C1=O` [Example 1095] ({CH2CO}-FYD[NHexGly]YLGRY[Ahp(2)]PVSCG-OH; thioether N-14): the pIC50 was 7.76.

Consider `CCCCCCN1CC(=O)N[C@@H](Cc2ccc(O)cc2)C(=O)N[C@@H](CC(C)C)C(=O)NCC(=O)N[C@@H](CCCNC(=N)N)C(=O)N[C@@H](Cc2ccc(O)cc2)C(=O)N[C@@H](CCCCC)C(=O)N2CCC[C@H]2C(=O)N[C@@H](C(C)C)C(=O)N[C@@H](CC(=O)O)C(=O)N[C@H](C(=O)NCC(N)=O)CSCC(=O)N[C@@H](Cc2ccccc2)C(=O)N[C@@H](Cc2ccc(O)cc2)C(=O)N[C@@H](CC(=O)O)C1=O` [Example 1096] ({CH2CO}-FYD[NHexGly]YLGRY[Ahp(2)]PVDCG-NH2; thioether N-14), for which the pIC50 is 7.81.

With `CCCCCCN1CC(=O)N[C@@H](Cc2ccc(O)cc2)C(=O)N[C@@H](CC(C)C)C(=O)NCC(=O)N[C@@H](CCCNC(=N)N)C(=O)N[C@@H](Cc2ccc(O)cc2)C(=O)N[C@@H](CCCCC)C(=O)N2CCC[C@H]2C(=O)N[C@@H](C(C)C)C(=O)N[C@@H](C(C)C)C(=O)N[C@H](C(=O)NCC(=O)O)CSCC(=O)N[C@@H](Cc2ccccc2)C(=O)N[C@@H](Cc2ccc(O)cc2)C(=O)N[C@@H](CC(=O)O)C1=O` [Example 1097] ({CH2CO}-FYD[NHexGly]YLGRY[Ahp(2)]PVVCG-OH; thioether N-14), the pIC50 was 7.74.

Turning to `CCCCCCN1CC(=O)N[C@@H](Cc2ccc(O)cc2)C(=O)N[C@@H](CCCCC)C(=O)N[C@@H](CC(N)=O)C(=O)N[C@@H](CCCNC(=N)N)C(=O)N[C@@H](Cc2c[nH]c3ccccc23)C(=O)N[C@@H](CCCCC)C(=O)N2CCC[C@H]2C(=O)N[C@@H](C(C)C)C(=O)N[C@@H](CO)C(=O)N[C@H](C(=O)NCC(=O)O)CSCC(=O)N[C@@H](Cc2ccccc2)C(=O)N[C@@H](Cc2ccc(O)cc2)C(=O)N[C@@H](CC(=O)O)C1=O` [Example 1098] ({CH2CO}-FYD[NHexGly]Y[Ahp(2)]NRW[Ahp(2)]PVSCG-OH; thioether N-14), the pIC50 was 7.83.

For `CCCCCCN1CC(=O)N[C@@H](Cc2ccc(O)cc2)C(=O)N[C@@H](CCCC)C(=O)NCC(=O)N[C@@H](CCCNC(=N)N)C(=O)N[C@@H](CC(C)C)C(=O)N[C@@H](CCCCC)C(=O)N2CCC[C@H]2C(=O)N[C@@H](C(C)C)C(=O)N2CCC[C@H]2C(=O)N[C@H](C(=O)NCC(=O)O)CSCC(=O)N[C@@H](Cc2ccccc2)C(=O)N[C@@H](Cc2ccc(O)cc2)C(=O)N[C@@H](CC(=O)O)C1=O` [Example 1099] ({CH2CO}-FYD[NHexGly]Y[Nle]GRL[Ahp(2)]PVPCG-OH; thioether N-14), the pIC50 was 7.67.

Regarding `CCCCCCN1CC(=O)N[C@@H](Cc2ccc(O)cc2)C(=O)N[C@@H](CCCCC)C(=O)NCC(=O)N[C@@H](CCCNC(=N)N)C(=O)N[C@@H](CC(C)C)C(=O)N[C@@H](CCCCC)C(=O)N2CCC[C@H]2C(=O)N[C@@H](C(C)C)C(=O)N2CCC[C@H]2C(=O)N[C@H](C(=O)NCC(N)=O)CSCC(=O)N[C@@H](Cc2ccccc2)C(=O)N[C@@H](Cc2ccc(O)cc2)C(=O)N[C@@H](CC(=O)O)C1=O` [Example 1100] ({CH2CO}-FYD[NHexGly]Y[Ahp(2)]GRL[Ahp(2)]PVPCG-NH2; thioether N-14), the pIC50 was 7.75.

Turning to `CCCCCCN1CC(=O)N[C@@H](Cc2ccc(O)cc2)C(=O)N[C@@H](CCC)C(=O)NCC(=O)N[C@@H](CCCNC(=N)N)C(=O)N[C@@H](CC(C)C)C(=O)N[C@@H](CCCCC)C(=O)N2CCC[C@H]2C(=O)N[C@@H](C(C)C)C(=O)N2CCC[C@H]2C(=O)N[C@H](C(=O)NCC(N)=O)CSCC(=O)N[C@@H](Cc2ccccc2)C(=O)N[C@@H](Cc2ccc(O)cc2)C(=O)N[C@@H](CC(=O)O)C1=O` [Example 1102] ({CH2CO}-FYD[NHexGly]Y[Nva]GRL[Ahp(2)]PVPCG-NH2; thioether N-14), the pIC50 was 7.59.

In the case of `CCCCCCN1CC(=O)N[C@@H](Cc2ccc(O)cc2)C(=O)N[C@@H](C(C)C)C(=O)NCC(=O)N[C@@H](CCCNC(=N)N)C(=O)N[C@@H](CC(C)C)C(=O)N[C@@H](CCCCC)C(=O)N2CCC[C@H]2C(=O)N[C@@H](C(C)C)C(=O)N2CCC[C@H]2C(=O)N[C@H](C(=O)NCC(=O)O)CSCC(=O)N[C@@H](Cc2ccccc2)C(=O)N[C@@H](Cc2ccc(O)cc2)C(=O)N[C@@H](CC(=O)O)C1=O` [Example 1109] ({CH2CO}-FYD[NHexGly]YVGRL[Ahp(2)]PVPCG-OH; thioether N-14), the pIC50 is 7.41.

As for `CCCCCCN1CC(=O)N[C@@H](Cc2ccc(O)cc2)C(=O)N[C@@H](C(C)C)C(=O)NCC(=O)N[C@@H](CCCNC(=N)N)C(=O)N[C@@H](CC(C)C)C(=O)N[C@@H](CCCCC)C(=O)N2CCC[C@H]2C(=O)N[C@@H](C(C)C)C(=O)N[C@@H](CC(=O)O)C(=O)N[C@H](C(=O)N[C@@H](CO)C(=O)N[C@@H](CCCN)C(=O)N[C@@H](CC(N)=O)C(=O)O)CSCC(=O)N[C@@H](Cc2ccc3ccccc3c2)C(=O)N[C@@H](Cc2ccc(O)cc2)C(=O)N[C@@H](CC(=O)O)C1=O` [Example 1159] ({CH2CO}-[2Nal]YD[NHexGly]YVGRL[Ahp(2)]PVDCS[Orn]N-OH; thioether N-14), the pIC50 is 7.76.

Turning to `CCCCCCN1CC(=O)N[C@@H](Cc2ccc(O)cc2)C(=O)N[C@@H](C(C)C)C(=O)NCC(=O)N[C@@H](CCCNC(=N)N)C(=O)N[C@@H](CC(C)C)C(=O)N[C@@H](CCCCC)C(=O)N2CCC[C@H]2C(=O)N[C@@H](C(C)C)C(=O)N[C@@H](CC(=O)O)C(=O)N[C@H](C(=O)N[C@@H](CO)C(=O)N[C@@H](CCCN)C(=O)N[C@@H](CCC(N)=O)C(=O)O)CSCC(=O)N[C@@H](Cc2ccc3ccccc3c2)C(=O)N[C@@H](Cc2ccc(O)cc2)C(=O)N[C@@H](CC(=O)O)C1=O` [Example 1160] ({CH2CO}-[2Nal]YD[NHexGly]YVGRL[Ahp(2)]PVDCS[Orn]Q-OH; thioether N-14), the pIC50 is 7.43.

In the case of `CCCCCCN1CC(=O)N[C@@H](Cc2ccc(O)cc2)C(=O)N[C@@H](C(C)C)C(=O)NCC(=O)N[C@@H](CCCNC(=N)N)C(=O)N[C@@H](CC(C)C)C(=O)N[C@@H](CCCCC)C(=O)N2CCC[C@H]2C(=O)N[C@@H](C(C)C)C(=O)N[C@@H](CC(=O)O)C(=O)N[C@H](C(=O)N[C@@H](CO)C(=O)N[C@@H](CN)C(=O)N[C@@H](CC(N)=O)C(=O)O)CSCC(=O)N[C@@H](Cc2ccc3ccccc3c2)C(=O)N[C@@H](Cc2ccc(O)cc2)C(=O)N[C@@H](CC(=O)O)C1=O` [Example 1161] ({CH2CO}-[2Nal]YD[NHexGly]YVGRL[Ahp(2)]PVDCS[Dap]N-OH; thioether N-14), the pIC50 is 7.64.

For `CCCCCCN1CC(=O)N[C@@H](Cc2ccc(O)cc2)C(=O)N[C@@H](C(C)C)C(=O)NCC(=O)N[C@@H](CCCNC(=N)N)C(=O)N[C@@H](CC(C)C)C(=O)N[C@@H](CCCCC)C(=O)N2CCC[C@H]2C(=O)N[C@@H](C(C)C)C(=O)N[C@@H](CC(=O)O)C(=O)N[C@H](C(=O)N[C@@H](CO)C(=O)N[C@@H](CN)C(=O)N[C@@H](CCC(N)=O)C(=O)O)CSCC(=O)N[C@@H](Cc2ccc3ccccc3c2)C(=O)N[C@@H](Cc2ccc(O)cc2)C(=O)N[C@@H](CC(=O)O)C1=O` [Example 1162] ({CH2CO}-[2Nal]YD[NHexGly]YVGRL[Ahp(2)]PVDCS[Dap]Q-OH; thioether N-14), the pIC50 is 7.45.

Regarding `CCCCCCN1CC(=O)N[C@@H](Cc2ccc(O)cc2)C(=O)N[C@@H](C(C)C)C(=O)NCC(=O)N[C@@H](CCCNC(=N)N)C(=O)N[C@@H](CC(C)C)C(=O)N[C@@H](CCCCC)C(=O)N2CCC[C@H]2C(=O)N[C@@H](C(C)C)C(=O)N[C@@H](CC(=O)O)C(=O)N[C@H](C(=O)N[C@@H](CO)C(=O)N[C@@H](CCCCN)C(=O)N[C@@H](CC(N)=O)C(=O)O)CSCC(=O)N[C@@H](Cc2ccc3ccccc3c2)C(=O)N[C@@H](Cc2ccc(O)cc2)C(=O)N[C@@H](CC(=O)O)C1=O` [Example 1163] ({CH2CO}-[2Nal]YD[NHexGly]YVGRL[Ahp(2)]PVDCSKN-OH; thioether N-14), the pIC50 was 7.65.

In the case of `CCCCCCN1CC(=O)N[C@@H](Cc2ccc(O)cc2)C(=O)N[C@@H](C(C)C)C(=O)NCC(=O)N[C@@H](CCCNC(=N)N)C(=O)N[C@@H](CC(C)C)C(=O)N[C@@H](CCCCC)C(=O)N2CCC[C@H]2C(=O)N[C@@H](C(C)C)C(=O)N[C@@H](CC(=O)O)C(=O)N[C@H](C(=O)N[C@@H](CO)C(=O)N[C@@H](CCN)C(=O)N[C@@H](CC(N)=O)C(=O)O)CSCC(=O)N[C@@H](Cc2ccc3ccccc3c2)C(=O)N[C@@H](Cc2ccc(O)cc2)C(=O)N[C@@H](CC(=O)O)C1=O` [Example 1164] ({CH2CO}-[2Nal]YD[NHexGly]YVGRL[Ahp(2)]PVDCS[Dab]N-OH; thioether N-14), the pIC50 was 8.01.

For orientation: pIC50 means the negative decadic logarithm of the IC50, by convention in mol/L.

For the origin of these results see patent US20240218022A1, “ANTI-VISTA MACROCYCLIC PEPTIDES AND COMPOSITIONS” (BRISTOL-MYERS SQUIBB COMPANY, priority 2022, published 2024).
